We go through 23 molecules from patent publication US20240336611A1 (Insilico Medicine IP Limited, priority 2021, published 2024).

Where only a bound is given, the exact number is not on record here.

The target of data set [1] is T1, TNIK kinase [amino acid sequence (1-367), Invitrogen] (Homo sapiens, UniProt Q9UKE5).
T1 construct: purchased Invitrogen
Description: TNIK kinase inhibition assay (Z-lyte FRET-peptide). It is filed as biochemical. The conditions noted are these: 0.625 nM TNIK kinase, 2 μM Ser/Thr 7 peptide, 64 μM ATP, one hour at room temperature.

A short description of data set [2]: Metabolic stability in human liver microsomes. The conditions noted are these: LM Clint (intrinsic clearance); 1 μM test compound, 0.5 mg protein/mL microsome, 37° C., up to 60 min. It is filed as in vitro ADME. (In general: Microsomes from liver hold many membrane-bound enzymes, among them those of drug oxidation.)

A word on the IC50: it is the concentration that gives 50% inhibition. A higher IC50 goes with weaker potency in that assay.

T1 sequence (Q9UKE5 1-367): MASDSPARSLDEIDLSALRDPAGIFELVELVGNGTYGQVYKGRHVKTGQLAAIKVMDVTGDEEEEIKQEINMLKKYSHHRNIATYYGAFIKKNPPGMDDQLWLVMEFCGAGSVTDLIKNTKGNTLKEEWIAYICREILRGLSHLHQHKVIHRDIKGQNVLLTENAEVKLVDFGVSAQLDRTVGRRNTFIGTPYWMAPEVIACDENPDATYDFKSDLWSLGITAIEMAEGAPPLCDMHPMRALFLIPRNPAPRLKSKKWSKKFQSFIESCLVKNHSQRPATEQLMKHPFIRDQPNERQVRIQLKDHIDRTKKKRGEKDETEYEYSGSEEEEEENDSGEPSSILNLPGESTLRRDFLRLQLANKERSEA

As to `CN1C2CC1CN(c1ccc(NC(=O)c3csc(-c4c(-c5ccc(F)cc5)ncn4C4CC(F)(F)C4)n3)c(F)c1)C2` [Compound 86, 2-(1-(3,3-difluorocyclobutyl)-4-(4-fluorophenyl)-1H-imidazol-5-yl)-N-(2-fluoro-4-(6-methyl-3,6-diazabicyclo[3.1.1]heptan-3-yl)phenyl)thiazole-4-carboxamide], the IC50 in data set [1] was 1 to 12 nM. In addition, in data set [2], the “Human Liver Microsome (μM/min/mg)” value is “++ (10-100 μM/min/mg as ++)”.

`[2H]C([2H])([2H])N1CCN(c2ccc(NC(=O)c3c[nH]c(-c4c(-c5ccc(F)cc5)ncn4C([2H])(C)C)n3)nc2)CC1` [Compound 125, 2-[3-(1-deuterio-1-methyl-ethyl)-5-(4-fluorophenyl)imidazol-4-yl]-N-[5-[4-(trideuteriomethyl)piperazin-1-yl]-2-pyridyl]-1H-imidazole-4-carboxamide]: the IC50 in data set [1] was 1 to 12 nM. In addition, the “Human Liver Microsome (μM/min/mg)” value in data set [2] is listed as “++ (10-100 μM/min/mg as ++)”.

`CC(C)c1noc(-c2ccc(F)cc2)c1-c1nc(C(=O)Nc2ccc(C3COC3)cn2)cs1` [Compound 93, 2-(5-(4-fluorophenyl)-3-isopropylisoxazol-4-yl)-N-(5-(oxetan-3-yl)pyridin-2-yl)thiazole-4-carboxamide] displayed a half-inhibitory concentration (IC50) in data set [1] of 1 to 12 nM. Also, the “Human Liver Microsome (μM/min/mg)” value in data set [2] is on record as “++ (10-100 μM/min/mg as ++)”.

For the molecule `[2H]C([2H])([2H])N1CC(c2ccc(NC(=O)c3nc(-c4c(-c5ccc(F)cc5)ncn4C4CCC4)cs3)c(F)c2)C1` [Compound 122, 4-[3-cyclobutyl-5-(4-fluorophenyl)imidazol-4-yl]-N-[2-fluoro-4-[1-(trideuteriomethyl)azetidin-3-yl]phenyl]thiazole-2-carboxamide], the 50% inhibitory concentration (IC50) in data set [1] lay within 1 to 12 nM. The “Human Liver Microsome (μM/min/mg)” value in data set [2] is “++ (10-100 μM/min/mg as ++)”.

`[2H]C([2H])([2H])N1CCN(c2ccc(NC(=O)c3c[nH]c(-c4c(-c5ccc(F)cc5)ncn4C(C)C)n3)nc2)CC1` [Compound 124, 2-[5-(4-fluorophenyl)-3-isopropyl-imidazol-4-yl]-N-[5-[4 (trideuteriomethyl)piperazin-1-yl]-2-pyridyl]-1H-imidazole-4-carboxamide] had a half-inhibitory concentration (IC50) in data set [1] of 1 to 12 nM. Besides, the “Human Liver Microsome (μM/min/mg)” value in data set [2] was “++ (10-100 μM/min/mg as ++)”.

As to `O=C(Nc1ccc(C2COC2)cn1)c1coc(-c2c(-c3ccc(F)cc3)ncn2C2CC(F)(F)C2)n1` [Compound 63, 2-(1-(3,3-difluorocyclobutyl)-4-(4-fluorophenyl)-1H-imidazol-5-yl)-N-(5-(oxetan-3-yl)pyridin-2-yl)oxazole-4-carboxamide], in data set [1], the half-maximal inhibitory concentration (IC50) is above 150 nM. In addition, in data set [2], the “Human Liver Microsome (μM/min/mg)” value is listed as “+ (>100 μM/min/mg as +)”.

`CC(C)c1onc(-c2ccc(F)cc2)c1-c1nc(C(=O)Nc2ccc(N3CC4CC(C3)N4C)cc2F)cs1` [Compound 98, N-(2-fluoro-4-(6-methyl-3,6-diazabicyclo[3.1.1]heptan-3-yl)phenyl)-2-(3-(4-fluorophenyl)-5-isopropylisoxazol-4-yl)thiazole-4-carboxamide] displayed an IC50 in data set [1] of 1 to 12 nM. Also, in data set [2], the “Human Liver Microsome (μM/min/mg)” value is given as “++ (10-100 μM/min/mg as ++)”.

In data set [1], `CC(C)n1cnc(-c2ccc(F)cc2)c1-c1nc(C(=O)Nc2ccc(N3CCN(C)CC3)cc2)cs1` [Compound 2, 2-(4-(4-fluorophenyl)-1-isopropyl-1H-imidazol-5-yl)-N-(4-(4-methylpiperazin-1-yl)phenyl)thiazole-4-carboxamide] returned an IC50 of 1 to 12 nM. In addition, the “Human Liver Microsome (μM/min/mg)” value in data set [2] is on record as “++ (10-100 μM/min/mg as ++)”.

As to `CC(C)n1cnc(-c2ccc(F)cc2)c1-c1nc(C(=O)Nc2ccc(N3CCN(C)CC3)cc2F)co1` [Compound 28, N-(2-fluoro-4-(4-methylpiperazin-1-yl)phenyl)-2-(4-(4-fluorophenyl)-1-isopropyl-1H-imidazol-5-yl)oxazole-4-carboxamide], the half-maximal inhibitory concentration (IC50) in data set [1] lay within 1 to 12 nM. For the same molecule, the “Human Liver Microsome (μM/min/mg)” value in data set [2] is listed as “+ (>100 μM/min/mg as +)”.

In turn, `CC(C)n1cnc(-c2ccc(F)cc2)c1-c1csc(C(=O)Nc2ccc(N3CCN(C)CC3)cn2)n1` [Compound 13, 4-(4-(4-fluorophenyl)-1-isopropyl-1H-imidazol-5-yl)-N-(5-(4-methylpiperazin-1-yl)pyridin-2-yl)thiazole-2-carboxamide] displayed a half-maximal inhibitory concentration (IC50) in data set [1] of 1 to 12 nM. Also, in data set [2], the “Human Liver Microsome (μM/min/mg)” value is given as “+ (>100 μM/min/mg as +)”.

For the molecule `CC(C)n1cnc(-c2ccc(F)cc2)c1-c1nc(C(=O)Nc2ccc(N3CCN(C)CC3)cc2F)cs1` [Compound 6, N-(2-fluoro-4-(4-methylpiperazin-1-yl)phenyl)-2-(4-(4-fluorophenyl)-1-isopropyl-1H-imidazol-5-yl)thiazole-4-carboxamide], the IC50 in data set [1] lay within 1 to 12 nM. In addition, the “Human Liver Microsome (μM/min/mg)” value in data set [2] was “+ (>100 μM/min/mg as +)”.

For `CC(C)c1onc(-c2ccc(F)cc2)c1-c1nc(C(=O)Nc2ccc(C3COC3)cc2F)cs1` [Compound 92, N-(2-fluoro-4-(oxetan-3-yl)phenyl)-2-(3-(4-fluorophenyl)-5-isopropylisoxazol-4-yl)thiazole-4-carboxamide], the IC50 in data set [1] fell in the range of 12 to 150 nM. Besides, the “Human Liver Microsome (μM/min/mg)” value in data set [2] is given as “++ (10-100 μM/min/mg as ++)”.

`CC(C)n1cnc(-c2ccc(F)cc2)c1-c1nc(C(=O)Nc2ccc(C3CCOCC3)cn2)c[nH]1` [Compound 53, 5′-(4-fluorophenyl)-3′-isopropyl-N-(5-(tetrahydro-2H-pyran-4-yl)pyridin-2-yl)-1H,3′H-[2,4′-biimidazole]-4-carboxamide] yielded an IC50 in data set [1] of 1 to 12 nM. Also, the “Human Liver Microsome (μM/min/mg)” value in data set [2] is on record as “++ (10-100 μM/min/mg as ++)”.

As to `CC(C)c1onc(-c2ccc(F)cc2)c1-c1nc(C(=O)Nc2ccc(C3COC3)cn2)cs1` [Compound 94, 2-(3-(4-fluorophenyl)-5-isopropylisoxazol-4-yl)-N-(5-(oxetan-3-yl)pyridin-2-yl)thiazole-4-carboxamide], the half-inhibitory concentration (IC50) in data set [1] was 1 to 12 nM. Besides, in data set [2], the “Human Liver Microsome (μM/min/mg)” value is on record as “++ (10-100 μM/min/mg as ++)”.

For the molecule `CC(C)n1cnc(-c2ccc(F)cc2)c1-c1nc(C(=O)Nc2ccc(C3CN(C)C3)cn2)co1` [Compound 102, 2-(4-(4-fluorophenyl)-1-isopropyl-1H-imidazol-5-yl)-N-(5-(1-methylazetidin-3-yl)pyridin-2-yl)oxazole-4-carboxamide], in data set [1], the 50% inhibitory concentration (IC50) fell in the range of 12 to 150 nM. Besides, the “Human Liver Microsome (μM/min/mg)” value in data set [2] is “++ (10-100 μM/min/mg as ++)”.

Molecule `CC(C)n1cnc(-c2ccc(F)cc2)c1-c1nc(C(=O)Nc2ccc(N3CCP(C)(=O)CC3)cc2F)cs1` [Compound 117, N-(2-fluoro-4-(4-methyl-4-oxido-1,4-azaphosphinan-1-yl)phenyl)-2-(4-(4-fluorophenyl)-1-isopropyl-1H-imidazol-5-yl)thiazole-4-carboxamide] showed an IC50 in data set [1] of 1 to 12 nM. In addition, the “Human Liver Microsome (μM/min/mg)” value in data set [2] is on record as “++ (10-100 μM/min/mg as ++)”.

The molecule `[2H]C([2H])([2H])N1CC(c2ccc(NC(=O)c3csc(-c4c(-c5ccc(F)cc5)noc4C(C)C)n3)nc2)C1` [Compound 115, 2-[3-(4-fluorophenyl)-5-isopropyl-isoxazol-4-yl]-N-[5-[1-(trideuteriomethyl)azetidin-3-yl]-2-pyridyl]thiazole-4-carboxamide] gave an IC50 in data set [1] of 1 to 12 nM. The “Human Liver Microsome (μM/min/mg)” value in data set [2] was “++ (10-100 μM/min/mg as ++)”.

For `CC(C)c1onc(-c2ccc(F)cc2)c1-c1nc(C(=O)Nc2ccc(C3CN(C)C3)cn2)cs1` [Compound 90, 2-(3-(4-fluorophenyl)-5-isopropylisoxazol-4-yl)-N-(5-(1-methylazetidin-3-yl)pyridin-2-yl)thiazole-4-carboxamide], the IC50 in data set [1] was in the range of 1 to 12 nM. Besides, in data set [2], the “Human Liver Microsome (μM/min/mg)” value is recorded as “++ (10-100 μM/min/mg as ++)”.

As to `CCN1CC(c2ccc(NC(=O)c3csc(-c4c(-c5ccc(F)cc5)ncn4C(C)C)n3)nc2)C1` [Compound 91, N-(5-(1-ethylazetidin-3-yl)pyridin-2-yl)-2-(4-(4-fluorophenyl)-1-isopropyl-1H-imidazol-5-yl)thiazole-4-carboxamide], the IC50 in data set [1] lay in the range of 1 to 12 nM. In addition, the “Human Liver Microsome (μM/min/mg)” value in data set [2] is on record as “++ (10-100 μM/min/mg as ++)”.

In data set [1], `CC(C)n1cnc(-c2ccc(F)cc2)c1-c1nc(C(=O)Nc2ccc(N3CCN(C)CC3)nc2)cs1` [Compound 8, 2-(4-(4-fluorophenyl)-1-isopropyl-1H-imidazol-5-yl)-N-(6-(4-methylpiperazin-1-yl)pyridin-3-yl)thiazole-4-carboxamide] gave a concentration for half-maximal inhibition (IC50) of 1 to 12 nM. Besides, the “Human Liver Microsome (μM/min/mg)” value in data set [2] is listed as “+ (>100 μM/min/mg as +)”.

`CN1CCN(c2ccc(NC(=O)c3c[nH]c(-c4c(-c5ccc(F)cc5)ncn4C4CCC4)n3)cc2)CC1` [Compound 26, 3′-cyclobutyl-5′-(4-fluorophenyl)-N-(4-(4-methylpiperazin-1-yl)phenyl)-1H,3′H-[2,4′-biimidazole]-4-carboxamide] came in with a half-inhibitory concentration (IC50) in data set [1] of 12 to 150 nM. In addition, the “Human Liver Microsome (μM/min/mg)” value in data set [2] is “++ (10-100 μM/min/mg as ++)”.

`CC(C)n1cnc(-c2ccc(F)cc2)c1-c1nc(C(=O)Nc2ccc(N3CCP(C)(=O)CC3)cn2)cs1` [Compound 85, 2-(4-(4-fluorophenyl)-1-isopropyl-1H-imidazol-5-yl)-N-(5-(4-methyl-4-oxido-1,4-azaphosphinan-1-yl)pyridin-2-yl)thiazole-4-carboxamide] gave an IC50 in data set [1] of 1 to 12 nM. Also, in data set [2], the “Human Liver Microsome (μM/min/mg)” value is on record as “++ (10-100 μM/min/mg as ++)”.

In data set [1], `CN1C2CC1CN(c1ccc(NC(=O)c3csc(-c4c(-c5ccc(F)cc5)ncn4C4CC(F)(F)C4)n3)nc1)C2` [Compound 83, 2-(1-(3,3-difluorocyclobutyl)-4-(4-fluorophenyl)-1H-imidazol-5-yl)-N-(5-(6-methyl-3,6-diazabicyclo[3.1.1]heptan-3-yl)pyridin-2-yl)thiazole-4-carboxamide] gave an IC50 of 1 to 12 nM. Besides, the “Human Liver Microsome (μM/min/mg)” value in data set [2] is listed as “++ (10-100 μM/min/mg as ++)”.
